What was measured:
[1] = test system: SASP markers IL-6, MMP3, IGFBP3, IGFBP5, IGFBP7; assay: qRT-PCR of SASP markers at P10 after treatment at each passage; assay type: cell-based, human; conditions: 160 μM for 24 hours at each passage
Experimental: Specifically, qRT-PCR performed in this example is as follows: after treating the replicative senescence model (P18) with nervonic acid for 3 days, total RNA was extracted using Trizol (Invitrogen, MA, USA) according to the method provided by the vendor. After quantifying the extracted total RNA, random hexamer and dNTP were added, and PCR was performed at 65° C. for 5 minutes. 5× SSIV buffer, 100 mM DTT, RNAse OUT, and Superscript IV RT were added and reverse transcription was performed to synthesize cDNA, and then qRT-PCR was performed to measure gene expression, and the expression levels were compared through 2^−ΔΔCt analysis.
Example 8. Confirmation Of anti-senescence efficacy by treating various human tissue-derived mesenchymal stem cells with nervonic acid Human-derived mesenchymal stem cells were treated with nervonic acid (160 μM) at each passage during cell culture from control cells (P5) to P10 to determine whether continuous treatment with nervonic acid during cell culture at early passage numbers was able to delay cellular senescence.
Specifically, from the day after human-derived mesenchymal stem cells were subcultured, treatment with 160 μM nervonic acid or an equivalent amount of DMSO (control) for 24 hours was performed, followed by replacement with the existing culture medium the next day. The above process was repeated to perform subculture up to P10 (passage 10). As such, B galactosidase staining for measuring cellular senescence was performed at P7, P8, P9, and P10, and cell doubling time and RNA extraction for qRT-PCR were both performed at P10. A more specific procedure therefor was carried out in the same manner as described above.

[2] = test system: replicative senescence model of human umbilical cord-derived mesenchymal stem cells (P18); assay: Cell size measurement, replicative senescence model (P18); assay type: cell-based; conditions: 160 μM, 3 days
Experimental: Example 4. Validation of gut microbiota-derived metabolite candidate for senescence control Control cells (P5) and replicative senescence-induced human umbilical cord-derived mesenchymal stem cells (P18) were treated with nervonic acid (160 μM) to analyze the effects of the gut microbiota-derived metabolite having the ability to control senescence of stem cells on the proliferation of stem cells and cell size.
In addition, since cells have the characteristic of undergoing hypertrophy during the progression of cellular senescence, cell sizes were compared.

## CCCCCCCC/C=C\CCCCCCCCCCCCCC(=O)O [nervonic acid]
[1]
  IGFBP3 mRNA expression, fold compared to control group (DMSO): 0.77±0.03 fold
  IGFBP5 mRNA expression, fold compared to control group (DMSO): 0.80±0.03 fold
  IGFBP7 mRNA expression, fold compared to control group (DMSO): 0.91±0.03 fold
  IL-6 mRNA expression, fold compared to control group (DMSO): 0.77±0.03 fold
  MMP3 mRNA expression, fold compared to control group (DMSO): 0.65±0.07 fold
[2]
  cell size, fold decrease compared to before treatment: 0.47±0.03 fold

From patent US20260226417A1, “METHOD FOR INHIBITING AGING OF STEM CELLS” (ENCELL CO., LTD, priority 2023, published 2026)
